The supplement of paper PMC10627819

What was measured:
Experiment in all cases: Bliss interaction score (quartile over a dose matrix) (fitness difference); higher = more antagonism (negative = synergy)
S. aureus Newman = system: S. aureus Newman
Summary of the method: (§1)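 The Bliss score was calculated by subtracting the expected fitness, the product of single-drug values, from the observed fitness. OD595 at entry into stationary phase, over the plate's robust no-drug mean and capped at 1, served as the fitness readout. Single-drug values were inferred from combination data, and scores are summarised by quartiles across technical, biological and donor/recipient replicates.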

B. subtilis 168 = system: B. subtilis 168
Summary of the method: as §1

S. aureus DSM 20231 = system: S. aureus DSM 20231
Summary of the method: as §1

S. pneumoniae D39V = system: S. pneumoniae D39V
Summary of the method: as §1
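Note: first quartile when negative (synergy) and third quartile when positive (antagonism).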

Cc1onc(-c2ccccc2)c1C(=O)N[C@@H]1C(=O)N2[C@@H]1SC(C)(C)[C@@H]2C(=O)O [Oxacillin] + CC1(C)S[C@@H]2[C@H](NC(=O)Cc3ccccc3)C(=O)N2[C@H]1C(=O)O [PenicillinG]
Bliss interaction score (S. aureus Newman): -0.0558
Bliss interaction score (B. subtilis 168): -0.0214
Bliss interaction score (S. aureus DSM 20231): 0.0796
Bliss interaction score (S. pneumoniae D39V): -0.235

Cc1onc(-c2ccccc2)c1C(=O)N[C@@H]1C(=O)N2[C@@H]1SC(C)(C)[C@@H]2C(=O)O [Oxacillin] + CC[C@H]1OC(=O)[C@H](C)C(=O)[C@H](C)[C@@H](O[C@@H]2O[C@H](C)C[C@H](N(C)C)[C@H]2O)[C@](C)(OC)C[C@@H](C)C(=O)[C@H](C)[C@H]2N(CCCCn3cnc(-c4cccnc4)c3)C(=O)O[C@]12C [Telithromycin]
Bliss interaction score (S. aureus Newman): 0.0304
Bliss interaction score (B. subtilis 168): -0.0301
Bliss interaction score (S. aureus DSM 20231): 0.0397
Bliss interaction score (S. pneumoniae D39V): 0.112

Cc1onc(-c2ccccc2)c1C(=O)N[C@@H]1C(=O)N2[C@@H]1SC(C)(C)[C@@H]2C(=O)O [Oxacillin] + Oc1cc(Cl)ccc1Oc1ccc(Cl)cc1Cl [Triclosan]
Bliss interaction score (S. aureus Newman): 0.0273
Bliss interaction score (B. subtilis 168): 0.025
Bliss interaction score (S. aureus DSM 20231): 0.0454
Bliss interaction score (S. pneumoniae D39V): 0.0852

C[n+]1ccc(-c2cc[n+](C)cc2)cc1 [Paraquat] + C/C(=C\C(=O)OCCCCCCCCC(=O)O)C[C@@H]1OC[C@H](C[C@@H]2O[C@H]2[C@@H](C)[C@H](C)O)[C@@H](O)[C@H]1O [Pseudomonic acid]
Bliss interaction score (S. aureus Newman): 0.0152
Bliss interaction score (B. subtilis 168): 0.0715
Bliss interaction score (S. aureus DSM 20231): 0.0093
Bliss interaction score (S. pneumoniae D39V): -0.0863

C[n+]1ccc(-c2cc[n+](C)cc2)cc1 [Paraquat] + CC1(C)S[C@@H]2[C@H](NC(=O)Cc3ccccc3)C(=O)N2[C@H]1C(=O)O [PenicillinG]
Bliss interaction score (S. aureus Newman): 0.0437
Bliss interaction score (B. subtilis 168): -0.0267
Bliss interaction score (S. aureus DSM 20231): -0.0239
Bliss interaction score (S. pneumoniae D39V): -0.0591

C[n+]1ccc(-c2cc[n+](C)cc2)cc1 [Paraquat] + CC[C@H]1OC(=O)[C@H](C)C(=O)[C@H](C)[C@@H](O[C@@H]2O[C@H](C)C[C@H](N(C)C)[C@H]2O)[C@](C)(OC)C[C@@H](C)C(=O)[C@H](C)[C@H]2N(CCCCn3cnc(-c4cccnc4)c3)C(=O)O[C@]12C [Telithromycin]
Bliss interaction score (S. aureus Newman): -0.0252
Bliss interaction score (B. subtilis 168): -0.0235
Bliss interaction score (S. aureus DSM 20231): 0.0414
Bliss interaction score (S. pneumoniae D39V): 0.0949

C[n+]1ccc(-c2cc[n+](C)cc2)cc1 [Paraquat] + Oc1cc(Cl)ccc1Oc1ccc(Cl)cc1Cl [Triclosan]
Bliss interaction score (S. aureus Newman): -0.0576
Bliss interaction score (B. subtilis 168): -0.188
Bliss interaction score (S. aureus DSM 20231): 0.0434
Bliss interaction score (S. pneumoniae D39V): 0.058

Cn1c2cccc(=O)c-2nc2ccccc21 [Pyocyanin] + CC[C@H]1OC(=O)[C@H](C)C(=O)[C@H](C)[C@@H](O[C@@H]2O[C@H](C)C[C@H](N(C)C)[C@H]2O)[C@](C)(OC)C[C@@H](C)C(=O)[C@H](C)[C@H]2N(CCCCn3cnc(-c4cccnc4)c3)C(=O)O[C@]12C [Telithromycin]
Bliss interaction score (S. aureus Newman): -0.0591
Bliss interaction score (B. subtilis 168): -0.0145
Bliss interaction score (S. aureus DSM 20231): 0.0313
Bliss interaction score (S. pneumoniae D39V): -0.0564

Cn1c2cccc(=O)c-2nc2ccccc21 [Pyocyanin] + Oc1cc(Cl)ccc1Oc1ccc(Cl)cc1Cl [Triclosan]
Bliss interaction score (S. aureus Newman): 0.0494
Bliss interaction score (B. subtilis 168): -0.0279
Bliss interaction score (S. aureus DSM 20231): 0.037
Bliss interaction score (S. pneumoniae D39V): -0.0544

CN(N=O)C(=O)N[C@@H](C=O)[C@@H](O)[C@H](O)[C@H](O)CO [Streptozotocin] + CC[C@H]1OC(=O)[C@H](C)C(=O)[C@H](C)[C@@H](O[C@@H]2O[C@H](C)C[C@H](N(C)C)[C@H]2O)[C@](C)(OC)C[C@@H](C)C(=O)[C@H](C)[C@H]2N(CCCCn3cnc(-c4cccnc4)c3)C(=O)O[C@]12C [Telithromycin]
Bliss interaction score (S. aureus Newman): -0.0223
Bliss interaction score (B. subtilis 168): 0.0498
Bliss interaction score (S. aureus DSM 20231): 0.0346
Bliss interaction score (S. pneumoniae D39V): 0.0699

CN(N=O)C(=O)N[C@@H](C=O)[C@@H](O)[C@H](O)[C@H](O)CO [Streptozotocin] + Cc1cc(NS(=O)(=O)c2ccc(N)cc2)no1 [Sulfamethoxazol]
Bliss interaction score (S. aureus Newman): 0.0639
Bliss interaction score (B. subtilis 168): -0.0496
Bliss interaction score (S. aureus DSM 20231): -0.0487
Bliss interaction score (S. pneumoniae D39V): -0.0217

CN(N=O)C(=O)N[C@@H](C=O)[C@@H](O)[C@H](O)[C@H](O)CO [Streptozotocin] + Oc1cc(Cl)ccc1Oc1ccc(Cl)cc1Cl [Triclosan]
Bliss interaction score (S. aureus Newman): -0.0226
Bliss interaction score (B. subtilis 168): 0.095
Bliss interaction score (S. aureus DSM 20231): 0.0542
Bliss interaction score (S. pneumoniae D39V): -0.0506

Cc1cc(NS(=O)(=O)c2ccc(N)cc2)no1 [Sulfamethoxazol] + CC[C@H]1OC(=O)[C@H](C)C(=O)[C@H](C)[C@@H](O[C@@H]2O[C@H](C)C[C@H](N(C)C)[C@H]2O)[C@](C)(OC)C[C@@H](C)C(=O)[C@H](C)[C@H]2N(CCCCn3cnc(-c4cccnc4)c3)C(=O)O[C@]12C [Telithromycin]
Bliss interaction score (S. aureus Newman): 0.0359
Bliss interaction score (B. subtilis 168): -0.0301
Bliss interaction score (S. aureus DSM 20231): 0.034
Bliss interaction score (S. pneumoniae D39V): -0.0611

Cc1cc(NS(=O)(=O)c2ccc(N)cc2)no1 [Sulfamethoxazol] + Oc1cc(Cl)ccc1Oc1ccc(Cl)cc1Cl [Triclosan]
Bliss interaction score (S. aureus Newman): 0.0302
Bliss interaction score (B. subtilis 168): 0.0965
Bliss interaction score (S. aureus DSM 20231): 0.0924
Bliss interaction score (S. pneumoniae D39V): -0.0608

CC[C@H]1OC(=O)[C@H](C)C(=O)[C@H](C)[C@@H](O[C@@H]2O[C@H](C)C[C@H](N(C)C)[C@H]2O)[C@](C)(OC)C[C@@H](C)C(=O)[C@H](C)[C@H]2N(CCCCn3cnc(-c4cccnc4)c3)C(=O)O[C@]12C [Telithromycin] + CC1=C\[C@@H](O)CC(=O)Cc2nc(co2)C(=O)N2CCC=C2C(=O)O[C@H](C(C)C)[C@H](C)/C=C/C(=O)NC\C=C\1 [Virginiamycin M1]
Bliss interaction score (S. aureus Newman): -0.0314
Bliss interaction score (B. subtilis 168): -0.0239
Bliss interaction score (S. aureus DSM 20231): -0.0529
Bliss interaction score (S. pneumoniae D39V): -0.037

CC[C@H]1OC(=O)[C@H](C)C(=O)[C@H](C)[C@@H](O[C@@H]2O[C@H](C)C[C@H](N(C)C)[C@H]2O)[C@](C)(OC)C[C@@H](C)C(=O)[C@H](C)[C@H]2N(CCCCn3cnc(-c4cccnc4)c3)C(=O)O[C@]12C [Telithromycin] + CN(C)c1cc(NC(=O)CNC(C)(C)C)c(O)c2c1C[C@H]1C[C@H]3[C@H](N(C)C)C(O)=C(C(N)=O)C(=O)[C@@]3(O)C(O)=C1C2=O [Tigecycline]
Bliss interaction score (S. aureus Newman): 0.0378
Bliss interaction score (B. subtilis 168): 0.0616
Bliss interaction score (S. aureus DSM 20231): -0.0261
Bliss interaction score (S. pneumoniae D39V): -0.107

CC[C@H]1OC(=O)[C@H](C)C(=O)[C@H](C)[C@@H](O[C@@H]2O[C@H](C)C[C@H](N(C)C)[C@H]2O)[C@](C)(OC)C[C@@H](C)C(=O)[C@H](C)[C@H]2N(CCCCn3cnc(-c4cccnc4)c3)C(=O)O[C@]12C [Telithromycin] + CN[C@H](CC(C)C)C(=O)N[C@H]1C(=O)N[C@@H](CC(N)=O)C(=O)N[C@H]2C(=O)N[C@H]3C(=O)N[C@H](C(=O)N[C@H](C(=O)O)c4cc(O)cc(O)c4-c4cc3ccc4O)[C@H](O)c3ccc(c(Cl)c3)Oc3cc2cc(c3O[C@@H]2O[C@H](CO)[C@@H](O)[C@H](O)[C@H]2O[C@H]2C[C@](C)(N)[C@H](O)[C@H](C)O2)Oc2ccc(cc2Cl)[C@H]1O [Vancomycin]
Bliss interaction score (S. aureus Newman): 0.0259
Bliss interaction score (B. subtilis 168): 0.0487
Bliss interaction score (S. aureus DSM 20231): -0.0478
Bliss interaction score (S. pneumoniae D39V): 0.0519

CC[C@H]1OC(=O)[C@H](C)C(=O)[C@H](C)[C@@H](O[C@@H]2O[C@H](C)C[C@H](N(C)C)[C@H]2O)[C@](C)(OC)C[C@@H](C)C(=O)[C@H](C)[C@H]2N(CCCCn3cnc(-c4cccnc4)c3)C(=O)O[C@]12C [Telithromycin] + COc1cc(Cc2cnc(N)nc2N)cc(OC)c1OC [Trimethoprim]
Bliss interaction score (S. aureus Newman): 0.0595
Bliss interaction score (B. subtilis 168): -0.243
Bliss interaction score (S. aureus DSM 20231): 0.0276
Bliss interaction score (S. pneumoniae D39V): 0.0323

CC[C@H]1OC(=O)[C@H](C)C(=O)[C@H](C)[C@@H](O[C@@H]2O[C@H](C)C[C@H](N(C)C)[C@H]2O)[C@](C)(OC)C[C@@H](C)C(=O)[C@H](C)[C@H]2N(CCCCn3cnc(-c4cccnc4)c3)C(=O)O[C@]12C [Telithromycin] + Oc1cc(Cl)ccc1Oc1ccc(Cl)cc1Cl [Triclosan]
Bliss interaction score (S. aureus Newman): 0.0266
Bliss interaction score (B. subtilis 168): 0.017
Bliss interaction score (S. aureus DSM 20231): -0.0253
Bliss interaction score (S. pneumoniae D39V): 0.0532

Oc1cc(Cl)ccc1Oc1ccc(Cl)cc1Cl [Triclosan] + CC1=C\[C@@H](O)CC(=O)Cc2nc(co2)C(=O)N2CCC=C2C(=O)O[C@H](C(C)C)[C@H](C)/C=C/C(=O)NC\C=C\1 [Virginiamycin M1]
Bliss interaction score (S. aureus Newman): 0.034
Bliss interaction score (B. subtilis 168): 0.0973
Bliss interaction score (S. aureus DSM 20231): 0.108
Bliss interaction score (S. pneumoniae D39V): 0.0386

Oc1cc(Cl)ccc1Oc1ccc(Cl)cc1Cl [Triclosan] + CN[C@H](CC(C)C)C(=O)N[C@H]1C(=O)N[C@@H](CC(N)=O)C(=O)N[C@H]2C(=O)N[C@H]3C(=O)N[C@H](C(=O)N[C@H](C(=O)O)c4cc(O)cc(O)c4-c4cc3ccc4O)[C@H](O)c3ccc(c(Cl)c3)Oc3cc2cc(c3O[C@@H]2O[C@H](CO)[C@@H](O)[C@H](O)[C@H]2O[C@H]2C[C@](C)(N)[C@H](O)[C@H](C)O2)Oc2ccc(cc2Cl)[C@H]1O [Vancomycin]
Bliss interaction score (S. aureus Newman): 0.0453
Bliss interaction score (B. subtilis 168): 0.0377
Bliss interaction score (S. aureus DSM 20231): 0.0768
Bliss interaction score (S. pneumoniae D39V): 0.0833

Oc1cc(Cl)ccc1Oc1ccc(Cl)cc1Cl [Triclosan] + COc1cc(Cc2cnc(N)nc2N)cc(OC)c1OC [Trimethoprim]
Bliss interaction score (S. aureus Newman): 0.0267
Bliss interaction score (B. subtilis 168): 0.13
Bliss interaction score (S. aureus DSM 20231): -0.0451
Bliss interaction score (S. pneumoniae D39V): 0.113
